# In patent US7884262B2, “Modified DMO enzyme and methods of its use” (Monsanto Technology LLC, priority 2006, dated 2011):
# Where “and” joins values, the source holds several entries; their conditions need not be identical. Equal entries are not always repeated. Entries after “also recorded” stand apart in the source; their conditions may differ. Where two headings read alike, the source gives them in different places.
# B1: DMOw: unaltered (wild type) dicamba monooxygenase sequence from Pseudomonas maltophilia, strain DI-6; U.S. Pat. No. 7,022,896 (protein, UniProt Q5S3I3 2-339, looked up)
# Dicamba O-demethylase, …: TFVRNAWYVAALPEELSEKPLGRTILDTPLALYRQPDGVVAALLDICPHRFAPLSDGILVNGHLQCPYHGLEFDGGGQCVHNPHGNGARPASLNVRSFPVVERDALIWIWPGDPALADPGAIPDFGCRVDPAYRTVGGYGHVDCNYKLLVDNLMDLGHAQYVHRANAQTDAFDRLEREVIVGDGEIQALMKIPGGTPSVLMAKFLRGANTPVDAWNDIRWNKVSAMLNFIAVAPEGTPKEQSIHSRGTHILTPETEASCHYFFGSSRNFGIDDPEMDGVLRSWQAQALVKEDKVVVEAIERRRAYVEANGIRPAMLSCDEAAVRVSREIEKLEQLEAA
# B2: DMOc: dicamba monooxygenase (DMO) variant comprising a cysteine at position 112 of SEQ ID NO:1 (protein)
# chain: MATFVRNAWYVAALPEELSEKPLGRTILDTPLALYRQPDGVVAALLDICPHRFAPLSDGILVNGHLQCPYHGLEFDGGGQCVHNPHGNGARPASLNVRSFPVVERDALIWICPGDPALADPGAIPDFGCRVDPAYRTVGGYGHVDCNYKLLVDNLMDLGHAQYVHRANAQTDAFDRLEREVIVGDGEIQALMKIPGGTPSVLMAKFLRGANTPVDAWNDIRWNKVSAMLNFIAVAPEGTPKEQSIHSRGTHILTPETEASCHYFFGSSRNFGIDDPEMDGVLRSWQAQALVKEDKVVVEAIERRRAYVEANGIRPAMLSCDEAAVRVSREIEKLEQLEAA
# Legend:
# [1] = test system: nontransgenic tobacco plants; settings: for Herbicide damage symptoms: spray
# Description: (§1) Plants in the greenhouse were sprayed with solvent and commercial grade dicamba (Clarity; BASF) using a compressed air, motor-driven, track sprayer with a flat-fan 8002E nozzle traveling at 1.87 mph. Additives included; 28% urea ammonium nitrate at 1.25% v/v and nonionic surfactant at 1.0% v/v. The solution containing dicamba at various concentrations was applied at 182 L/ha ([…]). Soybean field plantings were sprayed with Clarity herbicide at 2.8 kg/ha (2.5 lb/ac).
# (§2) In this study, the concentration of dicamba employed provided a dose of 1.12 kg/ha. […] In this study, treatments were compared using 2.2 kg/ha dicamba on two T1 tobacco plants, one carrying DMOc lacking a chloroplast transit peptide and the other completely lacking the DMOc gene due to genetic segregation.
# [2] = test system: Arabidopsis thaliana expressing the DMOc gene; settings: 1.12 kg/ha
# Description: (§3) Tobacco, tomato, soybeans and Arabidopsis were used for transgenic expression of the genetically engineered DMOc gene and confirmation of dicamba tolerance in plants expressing the gene. The DMOc coding sequence in binary vector pKLP36 was introduced into A. tumefaciens strain C58C1 containing the disarmed Ti plasmid pMP90 (Koncz and Schell, 1986) by triparental mating (Ditta 1980). The resultant transconjugants were used for tobacco (cv Xanthi) and tomato (cv Rutgers) transformation using the leaf disc protocol described by Horsch et al. (Horsch 1985). Arabidopsis thaliana was transformed by the floral dip technique (Clough and Bent, 1998). Transformation of soybean varieties Thorne and NE-3001 was carried out by cotyledonary-node Agrobacterium-mediated transformation system (Zhang et al., 1999).
# as §1, §2
# [3] = test system: DMOc-containing transgenic tobacco plants
# Description: as §3, §1, §2
# [4] = test system: Transgenic tomato plants carrying the genetically engineered DMOc gene; settings: first 0.56 kg/ha and subsequently 5.6 kg/ha
# Description: as §3, §1, §2
# transgenic soybean lines = test system: transgenic soybean lines
# Description: as §3, §1
# [5] = test system: homoplastidic transgenic tobacco plants containing a chloroplast-encoded dicamba monooxygenase gene
# [6] = DMO activity assay (DCSA formation by HPLC), steady state kinetics, pH and temperature optimum; assay type: biochemical
# Experimental: Protein concentrations were determined by Bradford assay with rabbit IgG as standard. Proteins were separated by SDS-PAGE and stained with Coomassie Blue. DMO activity was measured by following the formation of DCSA which was separated by HPLC (Waters Corporation, Milford, Mass.) by using a Discovery C18 column (Supelco, Sigma-Aldrich, St. Louis, Mo.). The retention time for DCSA was 8 minutes and for dicamba was 9.5 minutes. For kinetic studies the DCSA was detected and quantified by fluorescence emission at 420 nm (excitation wavelength 310 nm) after separation on the HPLC column from reaction mixture. Set concentrations of DCSA (12 and 24 μM) were used as quantification standards.
# Stock solution of dicamba (100, 200, 400, 800, 1000, 2000, 5000, and 10000 μM), 0.1 M KPi pH 7.2, 0.1 M FeSO4, 0.1 M NADH, and 1 M MgCl2 were used. The assays were performed at 30° C. for 20 minutes and the reaction was quenched by addition of 40 μl of H2SO4. For activity measurements DMO was coupled with an excess of purified ferredoxin and reductase from P. maltophilia strain DI-6.
# Since the assay for DMO activity was a discontinuous assay, it was important to establish the time for which the assay has to be run in order to obtain meaningful kinetic parameters. The assay thus has to be run under initial condition as the amount of DCSA produced is linear for the time the assay is being run (FIG. 4). […] (FIG. 6).
# The Michaelis-Menten parameters were determined by fitting the data to a nonlinear steady-state equation (Equation 1). The data were analyzed using Sigma plot 8.0 (Jandel Scientific). Vo=Vmax*[S]/(Km+[S]) Equation 1
# The optimum pH and temperature were also determined for DMOw and DMOc. Optimum pH was measured at 30° C. for 20 minutes and optimum temperature determination was measured also for 20 minutes at pH 7.2 for both forms of the enzyme. The results are summarized in FIGS. 7-9 and are discussed below.
# [7] = steady state, substrate dicamba
# [8] = steady state, substrate dicamba, 30° C., 20 minutes
molecule,measurement,setting,value
"COc1c(Cl)ccc(Cl)c1C(=O)O [dicamba, 3,6-dichloro-o-anisic acid]",Herbicide damage symptoms,[1]; 0.017 kg/ha,easily detected
same,Herbicide damage symptoms,[1]; 0.28 kg/ha,quite severe
same,Herbicide damage symptoms,[1]; 0.56 kg/ha,quite severe
same,damage caused by dicamba treatment,"[1]; 2.2 kg/ha, T1 plant lacking the DMOc gene due to genetic segregation",fully susceptible
same,damage,"[1]; 5.6 kg/ha, post-emergence, nontransgenic plant",severe damage
same,tolerance,[2],strong tolerance
same,symptoms,"[3]; 5.6 kg/ha, post-emergence","few, if any symptoms"
same,dicamba treatment level tolerated,[3]; transgenic tobacco expressing DMOc,≥ 5.6 kg/ha
same,damage,[4],no damage
same,tolerance,"transgenic soybean lines; 2.8 kg/ha (highest level tested), two years of field trials",strong tolerance
same,tolerance,"transgenic soybean lines; 2.8 kg/ha, greenhouse, most lines",significant tolerance
same,tolerance,"transgenic soybean lines; 5.6 kg/ha, greenhouse, most lines",significant tolerance
same,dicamba treatment level tolerated,transgenic soybean lines; DMOc in nuclear genome of soybean plants,2.8 kg/ha
same,damage,"[5]; 28 kg/ha (25 lb/ac), T1-T3 progeny",no apparent damage
same,damage,[5]; 112 kg/ha,only transitory damage
same,damage,[5]; 224 kg/ha,only transitory damage
same,dicamba tolerance level,[5]; DMOc gene in chloroplast genome,at least 28 kg/ha
B1,optimum pH for the assay,"[6]; 0.1 M Kpi buffer, 30° C., 20 minutes",7.2
same,Km,"[6]; DMOw, Study no. 1-3",49 µM and 46 µM
same,Vmax,"[6]; DMOw, Study no. 1-3",633 ± 24 nmol/min/mg and 583 ± 18 nmol/min/mg and 590 ± 19 nmol/min/mg
same,Km,[6]; Michaelis-Menten parameters,49 ± 7 µM
same,Vmax,[6]; Michaelis-Menten parameters,633 ± 24 nmol/min/mg
same,optimum temperature,"[6]; pH 7.2, 20 minutes",approximately 37 °C
same,Vmax,[6]; [7],633 ± 24 × 10^−3 U/mg
same,kcat,[6]; [7],36.63 s⁻¹
same,Km,[6]; [8],49 µM
B2,catalytic efficiency relative to DMOw,[6]; DMOc vs DMOw,five times better enzyme than DMOw; also recorded: five times more efficient than DMOw
same,Km,"[6]; DMOc, Study no. 1-2",21 µM and 20 µM
same,Vmax,"[6]; DMOc, Study no. 1-2",713 ± 43 nmol/min/mg and 676 ± 37 nmol/min/mg
same,Km,[6]; Michaelis-Menten parameters,20.5 ± 5 µM
same,Vmax,[6]; Michaelis-Menten parameters,676 ± 37 nmol/min/mg
same,Vmax,[6]; [7],676 ± 37 × 10^−3 U/mg
same,kcat,[6]; [7],70.41 s⁻¹
same,Km,[6]; [8],20 µM
